Data from patent publication US9499519B2, “Fused pyrimidine compounds and use thereof” (Medivation Technologies, Inc., priority 2012, dated 2016).

How the values were obtained:
[1] = biological target: T1, IGF-1R (Homo sapiens, UniProt P08069); experiment: In vitro IGF-1R enzymatic assay (ADP-Glo kinase assay); type: biochemical; settings: activated IGF-1R, 30 nM, average; for inhibition at 0.03 µM: read-out: % Inh @ 30 nM Avg
T1 construct: purchased Millipore 14-802
Protocol: IC50 values of the compounds of the invention against IGF-1R and IR were measured in vitro using an ADP-Glo kinase assay Kit (Promega). […] Kinase reactions in both assays were conducted at 30° C. for 20 min with increasing concentrations of compounds of the invention.
Additional compounds of the invention were screened against activated IGF-1R.

[2] = test system: Akt phosphorylation induced by IGF-1R; experiment: Western blot analysis of Akt phosphorylation induced by IGF-1 in HT-29 cells; type: cell-based, Human; settings: for Levels of phosphorylated AKT in treated cells (pAKT/actin): HT-29 cells, IGF-1; for p-AKT relative to levels with 0.1 nM compound: Table B2 lower part; for Normalized phosphorylated AKT (relative to actin) levels relative to 0.1 nM compound treatment: Table B2 upper part
Protocol: Inhibition of Akt phosphorylation induced by IGF-1R was studied by western blot analysis. Human colon carcinoma HT-29 cells were seeded at a density of 8×10^4 cells/well in a 24-well plate and grown in DME/F12 media containing 10% FBS for 24 h. The cells were then depleted of serum by incubation in DME/F12 media lacking FBS for 24 h. […] […] Lysed cells were centrifuged at 13,000 rpm for 15 min and the protein concentration soluble fraction (supernatant) of each sample was determined using a BCA protein assay (Pierce).

T1 sequence (P08069 31-1367): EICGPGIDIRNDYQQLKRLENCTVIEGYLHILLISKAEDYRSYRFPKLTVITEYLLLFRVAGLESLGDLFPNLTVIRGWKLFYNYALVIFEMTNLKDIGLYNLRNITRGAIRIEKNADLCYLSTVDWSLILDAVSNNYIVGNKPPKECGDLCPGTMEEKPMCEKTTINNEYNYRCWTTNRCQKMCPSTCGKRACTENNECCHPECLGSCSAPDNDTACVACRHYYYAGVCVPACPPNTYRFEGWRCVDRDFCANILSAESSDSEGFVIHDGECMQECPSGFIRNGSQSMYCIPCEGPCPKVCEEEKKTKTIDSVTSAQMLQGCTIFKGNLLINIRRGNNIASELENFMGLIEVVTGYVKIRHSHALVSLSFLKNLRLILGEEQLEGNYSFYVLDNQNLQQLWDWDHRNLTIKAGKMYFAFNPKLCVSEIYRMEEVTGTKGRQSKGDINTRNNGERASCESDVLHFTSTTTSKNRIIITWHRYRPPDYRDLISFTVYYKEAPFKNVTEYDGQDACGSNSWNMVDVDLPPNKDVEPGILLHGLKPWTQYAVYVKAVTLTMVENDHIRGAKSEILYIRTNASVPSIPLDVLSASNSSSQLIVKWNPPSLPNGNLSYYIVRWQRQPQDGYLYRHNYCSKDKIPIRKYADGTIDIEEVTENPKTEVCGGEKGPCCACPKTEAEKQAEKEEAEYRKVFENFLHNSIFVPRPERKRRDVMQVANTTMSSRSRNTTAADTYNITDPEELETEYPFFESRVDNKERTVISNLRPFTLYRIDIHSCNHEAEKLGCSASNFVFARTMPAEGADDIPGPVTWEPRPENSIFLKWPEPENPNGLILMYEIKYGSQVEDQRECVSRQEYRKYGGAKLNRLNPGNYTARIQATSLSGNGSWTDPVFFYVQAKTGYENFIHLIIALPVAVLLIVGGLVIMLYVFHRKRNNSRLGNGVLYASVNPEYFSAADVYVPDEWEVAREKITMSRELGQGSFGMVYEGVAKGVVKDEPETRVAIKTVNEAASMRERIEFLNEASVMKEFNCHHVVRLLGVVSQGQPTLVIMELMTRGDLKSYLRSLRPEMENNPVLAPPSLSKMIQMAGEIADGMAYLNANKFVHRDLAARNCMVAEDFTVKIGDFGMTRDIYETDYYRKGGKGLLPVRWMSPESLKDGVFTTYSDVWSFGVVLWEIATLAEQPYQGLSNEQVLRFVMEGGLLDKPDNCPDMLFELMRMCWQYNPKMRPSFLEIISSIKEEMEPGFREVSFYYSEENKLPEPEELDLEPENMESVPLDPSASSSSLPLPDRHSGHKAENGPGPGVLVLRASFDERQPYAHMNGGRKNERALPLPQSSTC

| Structure (SMILES) | inhibition at 0.03 µM [1] | Levels of phosphorylated AKT in treated cells (pAKT/actin) ([2]; 0.1 nM compound) | p-AKT relative to levels with 0.1 nM compound ([2]; 0.1 nM) | Normalized phosphorylated AKT (relative to actin) levels relative to 0.1 nM compound treatment ([2]; 0.1 nM) | Levels of phosphorylated AKT in treated cells (pAKT/actin) ([2]; 1 nM compound) | p-AKT relative to levels with 0.1 nM compound ([2]; 1 nM) | Normalized phosphorylated AKT (relative to actin) levels relative to 0.1 nM compound treatment ([2]; 1 nM) | Levels of phosphorylated AKT in treated cells (pAKT/actin) ([2]; 10 nM compound) | p-AKT relative to levels with 0.1 nM compound ([2]; 10 nM) | Normalized phosphorylated AKT (relative to actin) levels relative to 0.1 nM compound treatment ([2]; 10 nM) | Levels of phosphorylated AKT in treated cells (pAKT/actin) ([2]; 100 nM compound) | p-AKT relative to levels with 0.1 nM compound ([2]; 100 nM) | Normalized phosphorylated AKT (relative to actin) levels relative to 0.1 nM compound treatment ([2]; 100 nM) | % Inh @ 30 nM Avg [1] |
| --- | --- | --- | --- | --- | --- | --- | --- | --- | --- | --- | --- | --- | --- | --- |
| COC1CC(C(=O)Nc2ccc(F)nc2)N(c2nc3c(c(Nc4cc(C5CC5)[nH]n4)n2)CCC3)C1 (single isomer, unassigned) [Compound 21a, 1-(4-(5-cyclopropyl-1H-pyrazol-3-ylamino)-6,7-dihydro-5H-cyclopenta[d]pyrimidin-2-yl)-N-(6-fluoropyridin-3-yl)-4-methoxypyrrolidine-2-carboxamide] | 14% | – | – | – | – | – | – | – | – | – | – | – | – | – |
| O=C(Nc1ccc(F)nc1)C1CCCN1c1nc2c(c(Nc3cc(C4CC4)[nH]n3)n1)CCCC2 (single isomer, unassigned) [Compound 14b, 1-(4-(5-cyclopropyl-1H-pyrazol-3-ylamino)-5,6,7,8-tetrahydroquinazolin-2-yl)-N-(6-fluoropyridin-3-yl)pyrrolidine-2-carboxamide] | – | 0.51 | 1.0 | 1.0 | 0.49 | 0.9 | 0.9 | 0.02 | 0.0 | 0.0 | 0.00 | 0.0 | 0.0 | – |
| COC1CC(C(=O)Nc2ccc(F)nc2)N(c2nc3c(c(Nc4cc(C5CC5)[nH]n4)n2)CCC3)C1 (single isomer, unassigned) [Compound 21b, 1-(4-(5-cyclopropyl-1H-pyrazol-3-ylamino)-6,7-dihydro-5H-cyclopenta[d]pyrimidin-2-yl)-N-(6-fluoropyridin-3-yl)-4-methoxypyrrolidine-2-carboxamide] | 41% | – | – | – | – | – | – | – | – | – | – | – | – | – |
| O=C(Nc1ccc(F)nc1)C1CC(O)CN1c1nc2c(c(Nc3cc(C4CC4)[nH]n3)n1)CCC2 (racemic) [Compound 10c, 1-(4-(5-cyclopropyl-1H-pyrazol-3-ylamino)-6,7-dihydro-5H-cyclopenta[d]pyrimidin-2-yl)-N-(6-fluoropyridin-3-yl)-4-hydroxypyrrolidine-2-carboxamide] | – | – | – | – | – | – | – | – | – | – | – | – | – | 15% |
| O=C(Nc1ccc(F)nc1)C1CCCCN1c1nc2c(c(Nc3cc(C4CCCC4)[nH]n3)n1)CCC2 (single isomer, unassigned) [Compound 17a, 1-(4-(5-cyclopentyl-1H-pyrazol-3-ylamino)-6,7-dihydro-5H-cyclopenta[d]pyrimidin-2-yl)-N-(6-fluoropyridin-3-yl)piperidine-2-carboxamide] | – | 0.89 | 1.0 | 1.0 | 1.22 | 1.4 | 1.4 | 1.01 | 1.1 | 1.1 | 1.08 | 1.2 | 1.2 | – |
| O=C(Nc1ccc(F)nc1)C1CCCN1c1nc2c(c(Nc3cc(C4CC4)[nH]n3)n1)CCC2 (racemic) [Compound 2, 1-(4-(5-cyclopropyl-1H-pyrazol-3-ylamino)-6,7-dihydro-5H-cyclopenta[d]pyrimidin-2-yl)-N-(6-fluoropyridin-3-yl)pyrrolidine-2-carboxamide] | – | 1.04 | 1.0 | 1.0 | 0.91 | 0.9 | 0.9 | 0.07 | 0.1 | 0.1 | 0.00 | 0.0 | 0.0 | – |
| CC1(O)CC(c2nc(-c3ccc4ccc(-c5ccccc5)nc4c3)c3c(N)nccn23)C1 (stereo not shown) [OSI-906, 3-[8-Amino-1-(2-phenyl-7-quinolyl)imidazo[1,5-a]pyrazin-3-yl]-1-methyl-cyclobutanol, reference compound] | – | 1.06 | – | – | 0.85 | – | – | 1.58 | – | – | 0.40 | – | – | – |
| O=C(Nc1ccc(F)nc1)C1CCCN1c1nc2c(c(Nc3cc(C4CCCC4)[nH]n3)n1)CCC2 (racemic) [Compound 4, 1-(4-(3-cyclopentyl-1H-pyrazol-5-ylamino)-6,7-dihydro-5H-cyclopenta[d]pyrimidin-2-yl)-N-(6-fluoropyridin-3-yl)pyrrolidine-2-carboxamide] | – | 1.92 | 1.0 | 1.0 | 1.59 | 0.8 | 0.8 | 1.01 | 0.5 | 0.5 | 0.06 | 0.0 | 0.0 | – |
| O=C(Nc1cnccn1)C1CCCN1c1nc2c(c(Nc3cc(C4CC4)[nH]n3)n1)CCC2 (racemic) [Compound 6, 1-(4-(3-cyclopropyl-1H-pyrazol-5-ylamino)-6,7-dihydro-5H-cyclopenta[d]pyrimidin-2-yl)-N-(pyrazin-2-yl)pyrrolidine-2-carboxamide] | – | 1.54 | 1.0 | 1.0 | 0.22 | 0.1 | 0.1 | 0.01 | 0.0 | 0.0 | 0.01 | 0.0 | 0.0 | – |
| O=C(Nc1ccc(F)nc1)C1CCCCN1c1nc2c(c(Nc3cc(C4CC4)[nH]n3)n1)CCC2 (racemic) [Compound 9, 1-(4-(3-cyclopropyl-1H-pyrazol-5-ylamino)-6,7-dihydro-5H-cyclopenta[d]pyrimidin-2-yl)-N-(6-fluoropyridin-3-yl)piperidine-2-carboxamide] | – | 0.67 | 1.0 | 1.0 | 0.71 | 1.1 | 1.1 | 0.07 | 0.1 | 0.1 | 0.00 | 0.0 | 0.0 | – |
